Oligonucleotides are written 5' to 3', each unit as a sugar letter and its base; * is a phosphorothioate linkage, no mark a phosphodiester; rarer units and linkages stand in square brackets, end groups in braces. Plain capitals give the bases only. e = 2'-O-(2-methoxyethyl) (MOE); [5mC] = 5-methylcytosine; d = 2'-deoxy (DNA)
Tests used:
Format in all cases: in vivo, mouse
[1] = Plasma cholesterol and triglycerides in LDLr-/- mice
Description: The LDLr knockout mice model is a model for familial hypercholesterolemia developed by Ishibashi et al (J Clin Invest 1993; 92: 883-893). On a normal chow diet, the mice have an average total cholesterol of 250 mg/dL due to increases in LDL and VLDL cholesterol. This model is therefore highly susceptible to atherosclerosis (Ishibashi et al Proc Natl Acad Sci USA 1994; 91: 4431-4435).
(§1) Four groups of five male mice each were injected with a total of 1.5, 5, 15, or 50 mg/kg/week of ISIS 447118 for 6 weeks. A group of five mice was injected with a total of 50 mg/kg/week of control oligonucleotide ISIS 141923 ([…], designated herein as SEQ ID NO: 112, which has no known murine target) for 6 weeks. A control group of five mice was injected with phosphate buffered saline (PBS) twice a week for 6 weeks. Plasma samples were obtained before the start of treatment, at week 3 and at week 6. At the end of the treatment period, the mice were euthanized. Plasma and tissue samples were obtained for further analysis.
To investigate the effect of inhibition of TTC39B on triglycerides and cholesterol levels in the plasma, samples were collected on weeks 0, 3, and 6, and total plasma cholesterol, LDL cholesterol, HDL cholesterol, and triglycerides were analyzed on an Olympus AU400e Analyzer.

[2] = tested on: Apolipoprotein A-IV (ApoA4) mRNA; experiment: PCR microarray analysis of liver, LDLr-/- mice: ApoA4; conditions: 6 weeks
Description: as §1
(§2) Liver samples from the mice groups were analyzed using a commercial kit for PCR microarray analysis (SA Biosciences Corp., MD), according to the manufacturer's instructions. Genes involved in lipoprotein and cholesterol metabolism were compared with the PBS control.

[3] = tested on: Oxysterol binding protein-like 5 (Osbpl5) mRNA; experiment: PCR microarray analysis of liver, LDLr-/- mice: Osbpl5; conditions: 6 weeks
Description: as §1, §2

[4] = tested on: Sterol O-acyltransferase 2 (Soat2) mRNA; experiment: PCR microarray analysis of liver, LDLr-/- mice: Soat2; conditions: 6 weeks
Description: as §1, §2

[5] = tested on: Farnesyl diphosphate synthetase (Fdps) mRNA; experiment: PCR microarray analysis of liver, LDLr-/- mice: Fdps; conditions: 6 weeks
Description: as §1, §2

[6] = tested on: Insulin induced gene 1 (Insig1) mRNA; experiment: PCR microarray analysis of liver, LDLr-/- mice: Insig1; conditions: 6 weeks
Description: as §1, §2

[7] = tested on: Mevalonate (diphospho) decarboxylase (Mvd) mRNA; experiment: PCR microarray analysis of liver, LDLr-/- mice: Mvd; conditions: 6 weeks
Description: as §1, §2

[8] = tested on: Proprotein convertase subtilisin/kexin type 9 (Pcsk9) mRNA; experiment: PCR microarray analysis of liver, LDLr-/- mice: Pcsk9; conditions: 6 weeks
Description: as §1, §2

[9] = 1.5 mg/kg/week, Week 0 (before treatment)
[10] = 5 mg/kg/week, Week 0 (before treatment)
[11] = 15 mg/kg/week, Week 0 (before treatment)
[12] = 50 mg/kg/week, Week 0 (before treatment)

GCAGCTCGATTCGGGCATGA (antisense eG*e[5mC]*eA*eG*e[5mC]*dT*d[5mC]*dG*dA*dT*dT*d[5mC]*dG*dG*dG*e[5mC]*eA*eT*eG*eA) [ISIS 447118]
HDL cholesterol % increase on week 6 (% change over baseline) ([1]; 1.5 mg/kg/week): 36% | HDL cholesterol levels [1, 9]: 75 mg/dL | LDL cholesterol levels [1, 9]: 115 mg/dL | total cholesterol levels [1, 9]: 227 mg/dL | triglyceride levels [1, 9]: 126 mg/dL | HDL cholesterol levels ([1]; 1.5 mg/kg/week, Week 3): 71 mg/dL | LDL cholesterol levels ([1]; 1.5 mg/kg/week, Week 3): 116 mg/dL | total cholesterol levels ([1]; 1.5 mg/kg/week, Week 3): 217 mg/dL | triglyceride levels ([1]; 1.5 mg/kg/week, Week 3): 107 mg/dL | HDL cholesterol levels ([1]; 1.5 mg/kg/week, Week 6): 101 mg/dL | LDL cholesterol levels ([1]; 1.5 mg/kg/week, Week 6): 131 mg/dL | total cholesterol levels ([1]; 1.5 mg/kg/week, Week 6): 247 mg/dL | triglyceride levels ([1]; 1.5 mg/kg/week, Week 6): 142 mg/dL | HDL cholesterol % increase on week 6 (% change over baseline) ([1]; 5 mg/kg/week): 28% | HDL cholesterol levels [1, 10]: 88 mg/dL | LDL cholesterol levels [1, 10]: 112 mg/dL | total cholesterol levels [1, 10]: 234 mg/dL | triglyceride levels [1, 10]: 118 mg/dL | HDL cholesterol levels ([1]; 5 mg/kg/week, Week 3): 83 mg/dL | LDL cholesterol levels ([1]; 5 mg/kg/week, Week 3): 120 mg/dL | total cholesterol levels ([1]; 5 mg/kg/week, Week 3): 232 mg/dL | triglyceride levels ([1]; 5 mg/kg/week, Week 3): 122 mg/dL | HDL cholesterol levels ([1]; 5 mg/kg/week, Week 6): 112 mg/dL | LDL cholesterol levels ([1]; 5 mg/kg/week, Week 6): 130 mg/dL | total cholesterol levels ([1]; 5 mg/kg/week, Week 6): 261 mg/dL | triglyceride levels ([1]; 5 mg/kg/week, Week 6): 149 mg/dL | HDL cholesterol % increase on week 6 (% change over baseline) ([1]; 15 mg/kg/week): 45% | HDL cholesterol levels [1, 11]: 84 mg/dL | LDL cholesterol levels [1, 11]: 122 mg/dL | total cholesterol levels [1, 11]: 239 mg/dL | triglyceride levels [1, 11]: 120 mg/dL | HDL cholesterol levels ([1]; 15 mg/kg/week, Week 3): 82 mg/dL | LDL cholesterol levels ([1]; 15 mg/kg/week, Week 3): 133 mg/dL | total cholesterol levels ([1]; 15 mg/kg/week, Week 3): 249 mg/dL | triglyceride levels ([1]; 15 mg/kg/week, Week 3): 126 mg/dL | HDL cholesterol levels ([1]; 15 mg/kg/week, Week 6): 122 mg/dL | LDL cholesterol levels ([1]; 15 mg/kg/week, Week 6): 158 mg/dL | total cholesterol levels ([1]; 15 mg/kg/week, Week 6): 294 mg/dL | triglyceride levels ([1]; 15 mg/kg/week, Week 6): 131 mg/dL | HDL cholesterol % increase on week 6 (% change over baseline) ([1]; 50 mg/kg/week): 58% | HDL cholesterol levels [1, 12]: 78 mg/dL | LDL cholesterol levels [1, 12]: 99 mg/dL | total cholesterol levels [1, 12]: 207 mg/dL | triglyceride levels [1, 12]: 98 mg/dL | HDL cholesterol levels ([1]; 50 mg/kg/week, Week 3): 85 mg/dL | LDL cholesterol levels ([1]; 50 mg/kg/week, Week 3): 111 mg/dL | total cholesterol levels ([1]; 50 mg/kg/week, Week 3): 224 mg/dL | triglyceride levels ([1]; 50 mg/kg/week, Week 3): 96 mg/dL | HDL cholesterol levels ([1]; 50 mg/kg/week, Week 6): 124 mg/dL | LDL cholesterol levels ([1]; 50 mg/kg/week, Week 6): 146 mg/dL | total cholesterol levels ([1]; 50 mg/kg/week, Week 6): 282 mg/dL | triglyceride levels ([1]; 50 mg/kg/week, Week 6): 115 mg/dL | ApoA4 fold increase/decrease relative to PBS group ([2]; 1.5 mg/kg): 1.26 fold | ApoA4 fold increase/decrease relative to PBS group ([2]; 5 mg/kg): 1.38 fold | ApoA4 fold increase/decrease relative to PBS group ([2]; 15 mg/kg): 1.76 fold | ApoA4 fold increase/decrease relative to PBS group ([2]; 50 mg/kg): 2.7 fold | Osbpl5 fold increase/decrease relative to PBS group ([3]; 1.5 mg/kg): 1.7 fold | Osbpl5 fold increase/decrease relative to PBS group ([3]; 5 mg/kg): 2.34 fold | Osbpl5 fold increase/decrease relative to PBS group ([3]; 15 mg/kg): 3.11 fold | Osbpl5 fold increase/decrease relative to PBS group ([3]; 50 mg/kg): 2.11 fold | Soat2 fold increase/decrease relative to PBS group ([4]; 1.5 mg/kg): 1.05 fold | Soat2 fold increase/decrease relative to PBS group ([4]; 5 mg/kg): 0.88 fold | Soat2 fold increase/decrease relative to PBS group ([4]; 15 mg/kg): 1.36 fold | Soat2 fold increase/decrease relative to PBS group ([4]; 50 mg/kg): 1.79 fold | Fdps fold increase/decrease relative to PBS group ([5]; 1.5 mg/kg): 1.03 fold | Fdps fold increase/decrease relative to PBS group ([5]; 5 mg/kg): 0.84 fold | Fdps fold increase/decrease relative to PBS group ([5]; 15 mg/kg): 0.8 fold | Fdps fold increase/decrease relative to PBS group ([5]; 50 mg/kg): 0.66 fold | Insig1 fold increase/decrease relative to PBS group ([6]; 1.5 mg/kg): 0.96 fold | Insig1 fold increase/decrease relative to PBS group ([6]; 5 mg/kg): 0.84 fold | Insig1 fold increase/decrease relative to PBS group ([6]; 15 mg/kg): 0.68 fold | Insig1 fold increase/decrease relative to PBS group ([6]; 50 mg/kg): 0.67 fold | Mvd fold increase/decrease relative to PBS group ([7]; 1.5 mg/kg): 0.81 fold | Mvd fold increase/decrease relative to PBS group ([7]; 5 mg/kg): 0.7 fold | Mvd fold increase/decrease relative to PBS group ([7]; 15 mg/kg): 0.56 fold | Mvd fold increase/decrease relative to PBS group ([7]; 50 mg/kg): 0.67 fold | Pcsk9 fold increase/decrease relative to PBS group ([8]; 1.5 mg/kg): 0.83 fold | Pcsk9 fold increase/decrease relative to PBS group ([8]; 5 mg/kg): 0.66 fold | Pcsk9 fold increase/decrease relative to PBS group ([8]; 15 mg/kg): 0.4 fold | Pcsk9 fold increase/decrease relative to PBS group ([8]; 50 mg/kg): 0.23 fold
